Reference: US7186544B2, “Agents for promoting fattening of animals and method of promoting fattening” (Fuso Chemical Co., Ltd., priority 1999, dated 2007)

Key:
piglets = assay: Test Example 4: feeding test in piglets, 8 weeks, sodium gluconate dose series; assay type: in vivo, pigs; conditions: for Body Weight Increase ± S.D. / Feed Conversion Ratio ± S.D.: piglets about 20 kg, 8 weeks; for Body Weight Increase (index %) / Feed Conversion Ratio (index %): control with no additive = 100
Text: To a feed for latter artificial milk suckling-stage piglets (manufactured by Nippon Kagaku Shiryo Kyokai) and to a feed for raising piglets (manufactured by Nippon Kagaku Shiryo Kyokai), added were 0.05, 0.1, 0.25, 0.5 and 1.0%, relative to the weight of the feeds, of sodium gluconate.
The above-mentioned feeds were fed to groups of piglets (body weight: about 20 kg), each group being composed of 4 piglets (2 male piglets and 2 female piglets), continuously for 8 weeks (the feed for latter artificial milk for the former 2 weeks and the feed for raising piglets for the latter 6 weeks). During the period of the feeding test, each of the piglets was weighed every week, and an increase in the body weight was calculated for every group. In each group, checked was the feed intake during the period between the days on which the body weight was measured, and the feed conversion ratio was calculated.
This test was repeated 10 times for the group not having taken sodium gluconate and the group having taken 0.5% sodium gluconate, but 5 times for the other groups having taken sodium gluconate in different concentrations. The obtained body weight increases and the feed conversion ratios were averaged for every group.

Megasphaera elsdenii [1] = assay: Example 15: short-chain fatty acid production by isolated strain; assay type: cell-based
Procedure: (§1) The strains Megasphaera elsdenii and Mitsuokella multiacidus having grown in Example 14 were anaerobically incubated in PYF media (100 mL) with 1% w/v sodium gluconate added thereto, at 39° C. for 24 hours. The cultures were analyzed on the concentration of the short-chain fatty acids (mM) therein in the same manner as in Example 12.

Mitsuokella multiacidus [2] = assay: as above; assay type: cell-based
Procedure: as §1

[3] = tested on: new born broiler chicks (Chunky); assay: Test Example 3: feeding / drinking water test in broiler chicks, 8 weeks; assay type: in vivo, chickens; conditions: 0.5% in feed and 0.14% in drinking water vs chicks not having taken sodium gluconate
Procedure: The feeds of Example 10 and Comparative Example 4 and the drinking water prepared in Example 11 were fed to groups of new born broiler chicks (Chunky), each group being composed of 50 chicks (25 male chicks and 25 female chicks), continuously for 8 weeks. At the start of the feeding test, on two weeks, 4 weeks and 6 weeks after the start of the test, and at the end of the test, that is, five times in all, the chicks were weighed individually, and an increase in the body weight was calculated for every group. In each group, checked was the feed intake during the period between the days on which the body weight was measured, and the feed conversion ratio was calculated from the overall body weight increase and the overall feed intake.

anaerobic microorganisms = assay: Example 14: number of colonies of anaerobic microorganisms in PYF culture of pig intestinal filtrate; assay type: cell-based, pigs
Procedure: (§2) Pigs were acclimated for 1 week, and the contents of their large intestines were taken out. The contents were diluted 5-fold with an anaerobic phosphate buffer (50 mM, pH 6.5), and then filtrated through 4-layered gauze. One mL of the resulting filtrate was inoculated on a PYF medium (100 mL) with 1 w/v % sodium gluconate added thereto, and incubated in an anaerobic condition at 39° C.
(§3) During incubation, 5 mL of a sterilized 10 w/v % aqueous solution of sodium gluconate were put into the medium at intervals of 48 hours.
(§4) The culture without sodium gluconate and the culture with sodium gluconate added thereto were sampled on 0, 8, 24, 48, 96 and 144 hours in a germ-free condition, and the samples were diluted to 10^−5. 0.05 mL of each dilution were inoculated on BL agar media (manufactured by Nissui), and anaerobically incubated at 37° C. for 48 hours. The number of colonies of anaerobic microorganisms having grown in agar plates was counted (Table 7).

[4] = tested on: contents of pig large intestines; assay: Example 13: fermentation gas generated in culture of pig large intestine contents; assay type: cell-based, pigs
Procedure: The amount of fermentation gas generated in the cultivation of Example 12 was measured by putting a glass syringe equipped with an injection needle into a head space of the serum bottle, sucking the gas until normal pressure is reached and measuring the sucked gas by a syringe scale.
The composition of the gas was analyzed for carbon dioxide, methane, hydrogen and hydrogen sulfide by TCD and FPD gas chromatography (Ushida, et al.; Jpn. J. Zootech. Sci., 53, 412–416, 1982, and Anim. Sci. Technol., 69, 571–575, 1998).

[5] = tested on: contents of pig large intestines; assay: Example 12: static culture of pig large intestine contents, acids and ammonia; assay type: cell-based, pigs
Procedure: Three pigs were acclimated for 1 week, and the contents of their large intestines were taken out. The contents were diluted 5-fold with an anaerobic phosphate buffer (50 mM, pH 6.5), and then filtrated through 4-layered gauze. 25 mL of the resulting filtrate was put into serum bottles of 120 mL volume, and the gas phase therein was purged with a mixed gas of nitrogen/carbon dioxide (80/20). The bottles were sealed with butyl rubber stoppers and aluminum seals, and left for static culture at 39° C. for 24 hours (n=3).
Prior to putting the intestinal filtrate into the serum bottles, 1 w/v % glucose (positive control) and 1 w/v % sodium gluconate were put in the bottles, except for an additive-free control (negative control).
After the intestinal filtrate was thus cultivated, 1 mL of 6 N hydrochloric acid was added thereto to stop fermentation. The resulting cultures were analyzed as follows:
The cultures were pre-treated according to the Ushida and Sakata's conditions (Anim. Sci. Technol., 69, 571–575, […]), and then were analyzed on the concentration of short-chain fatty acids, succinic acid and lactic acid therein by HPLC and the concentration of ammonia therein by the indophenol method (Weatherburn, Analytic Chem., 39, 971–974, 1967). Subtracting the concentration before cultivation from that after cultivation gives the amount (mM) generated through fermentation.

Megasphaera elsdenii [6] = assay: Example 14: count of isolated strain in 144-hour culture; assay type: cell-based
Procedure: as §2, §3, §4
(§5) At the same time, according to the properties of the colonies thus grown, strains having grown only on the agar plate inoculated with the 144-hour sample of sodium gluconate-added culture were isolated, and they were counted and identified (Table 8).

Mitsuokella multiacidus [7] = assay: as above; assay type: cell-based
Procedure: as §2, §3, §4, §5

[8] = 0.05% added to feed, 5 test cycles
[9] = 0.1% added to feed, 5 test cycles
[10] = 0.25% added to feed, 5 test cycles
[11] = 0.5% added to feed, 10 test cycles
[12] = 1.0% added to feed, 5 test cycles
[13] = PYF medium with 1% w/v sodium gluconate, 39° C., 24 hours
[14] = sodium gluconate added minus control with no additive
[15] = cultivation of Example 12, 1 w/v % additive, n=3
[16] = after cultivation, 1 w/v % additive, 39° C., 24 hours, n=3
[17] = index based on the data before cultivation of 100
[18] = 144-hour sample of sodium gluconate-added culture

O=C([O-])[C@H](O)[C@@H](O)[C@H](O)[C@H](O)CO.[Na+] [Sodium Gluconate, sodium gluconate]
Body Weight Increase ± S.D. (piglets; [8]): 39.96 ± 5.83 kg
Feed Conversion Ratio ± S.D. (piglets; [8]): 2.62 ± 0.15
Body Weight Increase (index %) (piglets; 0.05% added to feed): (104) %
Feed Conversion Ratio (index %) (piglets; 0.05% added to feed): (97) %
Body Weight Increase ± S.D. (piglets; [9]): 40.92 ± 4.49 kg
Feed Conversion Ratio ± S.D. (piglets; [9]): 2.58 ± 0.11
Body Weight Increase (index %) (piglets; 0.1% added to feed): (106) %
Feed Conversion Ratio (index %) (piglets; 0.1% added to feed): (96) %
Body Weight Increase ± S.D. (piglets; [10]): 41.26 ± 3.44 kg
Feed Conversion Ratio ± S.D. (piglets; [10]): 2.55 ± 0.17
Body Weight Increase (index %) (piglets; 0.25% added to feed): (107) %
Feed Conversion Ratio (index %) (piglets; 0.25% added to feed): (94) %
Body Weight Increase ± S.D. (piglets; [11]): 40.43 ± 4.40 kg
Feed Conversion Ratio ± S.D. (piglets; [11]): 2.63 ± 0.12
Body Weight Increase (index %) (piglets; 0.5% added to feed): (105) %
Feed Conversion Ratio (index %) (piglets; 0.5% added to feed): (97) %
Body Weight Increase ± S.D. (piglets; [12]): 39.28 ± 2.58 kg
Feed Conversion Ratio ± S.D. (piglets; [12]): 2.74 ± 0.05
Body Weight Increase (index %) (piglets; 1.0% added to feed): (102) %
Feed Conversion Ratio (index %) (piglets; 1.0% added to feed): (101) %
Acetic Acid (Megasphaera elsdenii [1]; [13]): 8.7 mM
Butyric Acid (Megasphaera elsdenii [1]; [13]): 4.9 mM
Propionic Acid (Megasphaera elsdenii [1]; [13]): 0.8 mM
short-chain fatty acids produced by Megasphaera elsdenii utilizing sodium gluconate (Megasphaera elsdenii [1]; in words): produced a lot of acetic acid and butyric acid
Acetic Acid, Difference (Megasphaera elsdenii [1]; [14]): 2.9 mM
Butyric Acid, Difference (Megasphaera elsdenii [1]; [14]): 3.5 mM
Propionic Acid, Difference (Megasphaera elsdenii [1]; [14]): -0.8 mM
Acetic Acid (Mitsuokella multiacidus [2]; [13]): 9.9 mM
Butyric Acid (Mitsuokella multiacidus [2]; [13]): 1.0 mM
Propionic Acid (Mitsuokella multiacidus [2]; [13]): 43.1 mM
short-chain fatty acids produced by Mitsuokella multiacidus utilizing sodium gluconate (Mitsuokella multiacidus [2]; in words): produced a lot of acetic acid and propionic acid
Acetic Acid, Difference (Mitsuokella multiacidus [2]; [14]): 7.0 mM
Butyric Acid, Difference (Mitsuokella multiacidus [2]; [14]): 0.7 mM
Propionic Acid, Difference (Mitsuokella multiacidus [2]; [14]): 36.1 mM
feed efficiency improved by [3]: 6%
number of anaerobic microorganisms (anaerobic microorganisms; 0 hrs after start of incubation, 1 w/v % in PYF medium, 39° C.): <6.3 logarithmic number of the cells in 1 g of culture
number of anaerobic microorganisms (anaerobic microorganisms; 8 hrs after start of incubation): 8.9 logarithmic number of the cells in 1 g of culture
number of anaerobic microorganisms (anaerobic microorganisms; 24 hrs after start of incubation): 10.7 logarithmic number of the cells in 1 g of culture
number of anaerobic microorganisms (anaerobic microorganisms; 48 hrs after start of incubation): 8.7 logarithmic number of the cells in 1 g of culture
number of anaerobic microorganisms (anaerobic microorganisms; 96 hrs after start of incubation): 10.4 logarithmic number of the cells in 1 g of culture
number of anaerobic microorganisms (anaerobic microorganisms; 144 hrs after start of incubation): 7.7 logarithmic number of the cells in 1 g of culture
total number of anaerobic microorganisms (anaerobic microorganisms; in words): increased
Carbon Dioxide [4, 15]: 4330 µL/g
Hydrogen [4, 15]: 211.99 µL/g
Hydrogen Sulfide [4, 15]: 0.09 µL/g
Methane [4, 15]: 30 µL/g
Total Gas [4, 15]: 6880 µL/g
hydrogen sulfide in the cultures ([4]; in words, compared with cultures with no additives): greatly reduced
Acetic Acid [5, 16]: 161.90 mM
Ammonia [5, 16]: 5.79 mM
Butyric Acid [5, 16]: 70.36 mM
Lactic Acid [5, 16]: 0 mM
Propionic Acid [5, 16]: 103.25 mM
Succinic Acid [5, 16]: 0 mM
lactic acid, succinic acid and ammonia in the cultures ([5]; in words): greatly reduce
concentration of acetic acid, propionic acid and butyric acid in the cultures ([5]; in words, compared with cultures without sodium gluconate): greatly increased
Acetic Acid (index) [5, 17]: (404)
Ammonia (index) [5, 17]: (74)
Butyric Acid (index) [5, 17]: (1305)
Lactic Acid (index) [5, 17]: (0)
Propionic Acid (index) [5, 17]: (941)
Succinic Acid (index) [5, 17]: (0)
number of Megasphaera elsdenii (Megasphaera elsdenii [6]; [18]): 6.4 logarithmic number of the cells in 1 g of culture
Megasphaera elsdenii number (Megasphaera elsdenii [6]; in words): observed to increase
number of Mitsuokella multiacidus (Mitsuokella multiacidus [7]; [18]): 7.2 logarithmic number of the cells in 1 g of culture
Mitsuokella multiacidus number (Mitsuokella multiacidus [7]; in words): observed to increase
